# Source: BindingDB's records for patent US10245267 (Novartis, 2019)
# Target: Serine/threonine-protein kinase B-raf [V600E] (Homo sapiens, UniProt P15056, V600E)
# Assay: In Vitro Raf Activity
# Chain of Serine/threonine-protein kinase B-raf [V600E] (P15056 2-766 V600E limits assumed): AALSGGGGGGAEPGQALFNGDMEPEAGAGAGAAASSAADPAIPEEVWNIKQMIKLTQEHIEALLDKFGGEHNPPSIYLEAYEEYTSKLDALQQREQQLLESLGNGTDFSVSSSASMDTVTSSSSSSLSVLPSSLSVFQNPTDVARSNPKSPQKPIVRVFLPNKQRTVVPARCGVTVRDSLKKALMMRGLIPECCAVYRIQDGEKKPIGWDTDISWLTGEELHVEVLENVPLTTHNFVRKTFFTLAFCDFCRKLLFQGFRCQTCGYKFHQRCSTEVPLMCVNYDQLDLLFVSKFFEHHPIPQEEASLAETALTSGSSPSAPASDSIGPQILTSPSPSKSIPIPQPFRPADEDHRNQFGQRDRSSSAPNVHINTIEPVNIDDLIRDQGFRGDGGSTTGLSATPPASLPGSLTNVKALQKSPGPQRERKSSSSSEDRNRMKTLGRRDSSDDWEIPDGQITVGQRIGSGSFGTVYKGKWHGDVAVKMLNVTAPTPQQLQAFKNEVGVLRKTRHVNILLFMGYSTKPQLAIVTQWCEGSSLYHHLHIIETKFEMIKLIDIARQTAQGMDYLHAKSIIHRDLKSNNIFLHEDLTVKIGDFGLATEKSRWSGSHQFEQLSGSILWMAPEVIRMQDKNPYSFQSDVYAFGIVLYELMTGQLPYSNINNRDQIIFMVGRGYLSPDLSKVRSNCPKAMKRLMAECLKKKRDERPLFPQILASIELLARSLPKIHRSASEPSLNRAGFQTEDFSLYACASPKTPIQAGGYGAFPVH
row,SMILES,IC50
1,"Cc1ncc(NC(=O)c2ccnc(C(C)(C)C#N)c2)cc1-c1cc(N2CCOCC2)ncn1 [US10245267, Example 2]",4.8 nM
2,"Cc1ncc(NC(=O)c2ccnc(C(F)(F)F)c2)cc1-c1cnc(OC2CNC2)c(N2CCOCC2)c1 [US10245267, Example 325]",300 nM
3,"Cc1ncc(NC(=O)c2ccnc(C(F)(F)F)c2)cc1-c1cnc(C(C)(C)C#N)c(N2CCOCC2)c1 [US10245267, Example 326]",3.7 nM
4,"Cc1ncc(NC(=O)c2ccnc(C(F)(F)F)c2)cc1-c1cnc(CS(C)(=O)=O)c(N2CCOCC2)c1 [US10245267, Example 327]",3.9 nM
5,"CCOc1nnc(-c2cc(NC(=O)c3ccc(CN(C)CC)c(C(F)(F)F)c3)ccc2C)cc1N1CCOCC1 [US10245267, Example 576]",3.5 nM

# Now from value to compound:
row,IC50,SMILES
1,6.5 nM,"Cc1ncc(NC(=O)c2ccc(C#N)c(C(F)(F)F)c2)cc1-c1cc(N2CCOCC2)c2nccn2n1 [US10245267, Example 877]"
2,3.2 nM,"Cc1ncc(NC(=O)c2cccc(C(F)F)c2)cc1-c1cc(N2CCOCC2)c2nccn2n1 [US10245267, Example 880]"
3,32.6 nM,"Cc1ncc(NC(=O)c2ccnc(C(C)(C)C#N)c2)cc1-c1cc(N2CCOCC2)c2nccn2n1 [US10245267, Example 881]"
